Assays:
bermudagrass = experiment: Test C pre-/postemergence herbicide test; assay type: in vivo, Cynodon dactylon
Method in brief: (§1)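 Seeds were planted and sprayed preemergence with test chemicals in a non-phytotoxic solvent mixture containing surfactant; postemergence treatments went onto plants 2 to 18 cm tall (1- to 4-leaf stage). After 12 to 14 days in a greenhouse, injury was rated visually against untreated controls on a 0–100 scale.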

corn = experiment: Test C pre-/postemergence herbicide test; assay type: in vivo, Zea mays
Method in brief: as §1

large crabgrass = experiment: Test C pre-/postemergence herbicide test; assay type: in vivo, Digitaria sanguinalis
Method in brief: as §1

giant foxtail = experiment: Test C pre-/postemergence herbicide test; assay type: in vivo, Setaria faberi
Method in brief: as §1

kochia = experiment: Test C pre-/postemergence herbicide test; assay type: in vivo, Kochia scoparia
Method in brief: as §1

morningglory = experiment: Test C pre-/postemergence herbicide test; assay type: in vivo, Ipomoea coccinea; parameters: key to Plant response rating, Morningglory: 0 = no effect, 100 = complete control
Method in brief: as §1

common ragweed = experiment: Test C pre-/postemergence herbicide test; assay type: in vivo, Ambrosia elatior; parameters: key to Plant response rating, Ragweed: 0 = no effect, 100 = complete control
Method in brief: as §1

[1] = test system: common (oilseed) sunflower; experiment: Test C pre-/postemergence herbicide test; assay type: in vivo, Helianthus annuus
Method in brief: as §1

rice = experiment: Test C flooded paddy test; assay type: in vivo, Oryza sativa; conditions: for Plant response rating, Rice: 500 g ai/ha, visual rating after 12 to 14 days
Method in brief: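 Injury scored visually against controls on a 0 (no effect) to 100 (complete control) scale, 12 to 14 days after treatment in greenhouse. Flooded paddy plants treated at 2-leaf stage; postemergence plants at 1- to 4-leaf stage, 2 to 18 cm tall.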

[2] = test system: smallflower umbrella sedge; experiment: Test C flooded paddy test; assay type: in vivo, Cyperus difformis; conditions: for Plant response rating, Sedge, Umbrella: 500 g ai/ha, visual rating after 12 to 14 days
ducksalad = experiment: Test C flooded paddy test; assay type: in vivo, Heteranthera limosa; conditions: for Plant response rating, Ducksalad: 500 g ai/ha, visual rating after 12 to 14 days
[3] = 62 g ai/ha, preemergence, scale 0 to 100, 0 no effect, 100 complete control
[4] = 250 g ai/ha, scale 0-100, preemergence
[5] = 500 g ai/ha, scale 0 to 100 (0 no effect, 100 complete control), visual, 12 to 14 days, preemergence
[6] = 62 g ai/ha, preemergence, scale 0 to 100
[7] = 125 g ai/ha, scale 0 to 100 (0 no effect, 100 complete control)
[8] = 250 g ai/ha, scale of 0 to 100, 0 is no effect, 100 is complete control
[9] = scale 0 to 100 (0 no effect, 100 complete control)
[10] = 125 g ai/ha, scale 0 (no effect) to 100 (complete control), visual, 12 to 14 days, preemergence
[11] = 250 g ai/ha, scale 0 to 100 (0 no effect, 100 complete control), visual, 12 to 14 days, preemergence
[12] = Preemergence, 500 g ai/ha, scale 0 to 100, 0 no effect, 100 complete control
[13] = 62 g ai/ha, scale 0 to 100 (0 no effect, 100 complete control)

CCC1=NN(C(C)(C)C)CC1C(=O)Nc1cc(C(=O)N2CC=CC2)ccc1F (racemic) [Compound 340]
Plant response rating, Bermudagrass (bermudagrass; [3]): 20
Plant response rating (0 = no effect, 100 = complete control), Bermudagrass (bermudagrass; 125 g ai/ha, preemergence): 70
Plant response rating, Bermudagrass (bermudagrass; [4]): 85
Plant response rating, Bermudagrass (bermudagrass; [5]): 100
Plant response rating, Corn (corn; [6]): 5
Plant response rating (0 = no effect, 100 = complete control), Corn (corn; 125 g ai/ha, preemergence): 45
Plant response rating, Corn (corn; [4]): 45
Plant response rating, Corn (corn; [5]): 50
Plant response rating, Crabgrass, Large (large crabgrass; [6]): 50
Plant response rating (0 = no effect, 100 = complete control), Crabgrass, Large (large crabgrass; 125 g ai/ha, preemergence): 70
Plant response rating, Crabgrass, Large (large crabgrass; [4]): 100
Plant response rating, Crabgrass, Large (large crabgrass; [5]): 100
Plant response rating, Foxtail, Giant (giant foxtail; [6]): 0
Plant response rating (0 = no effect, 100 = complete control), Foxtail, Giant (giant foxtail; 125 g ai/ha, preemergence): 10
Plant response rating, Foxtail, Giant (giant foxtail; [4]): 60
Plant response rating, Foxtail, Giant (giant foxtail; [5]): 85
Plant response rating, Kochia (kochia; [6]): 10
Plant response rating (0 = no effect, 100 = complete control), Kochia (kochia; 125 g ai/ha, preemergence): 20
Plant response rating, Kochia (kochia; [4]): 90
Plant response rating, Kochia (kochia; [5]): 100
Plant response rating, Morningglory (morningglory; [6]): 0
Plant response rating (0 = no effect, 100 = complete control), Morningglory (morningglory; 125 g ai/ha, preemergence): 5
Plant response rating, Morningglory (morningglory; [4]): 10
Plant response rating, Morningglory (morningglory; [5]): 50
Plant response rating, Ragweed (common ragweed; [6]): 0
Plant response rating (0 = no effect, 100 = complete control), Ragweed (common ragweed; 125 g ai/ha, preemergence): 0
Plant response rating, Ragweed (common ragweed; [4]): 20
Plant response rating, Ragweed (common ragweed; [5]): 75
Plant response rating, Sunflower [1, 6]: 0
Plant response rating (0 = no effect, 100 = complete control), Sunflower ([1]; 125 g ai/ha, preemergence): 0
Plant response rating, Sunflower [1, 4]: 0
Plant response rating, Sunflower [1, 5]: 5
Rice plant response rating (rice; 62 g ai/ha, scale 0 to 100): 20
Rice plant response rating (rice; [7]): 40
Rice plant response rating (rice; [8]): 70
Plant response rating, Rice (rice; [9]): 80
Sedge, Umbrella plant response rating ([2]; 62 g ai/ha, scale 0 to 100): 50
Sedge, Umbrella plant response rating [2, 7]: 70
Sedge, Umbrella plant response rating [2, 8]: 70
Plant response rating, Sedge, Umbrella [2, 9]: 90
Ducksalad plant response rating (ducksalad; 62 g ai/ha, scale 0 to 100): 50
Ducksalad plant response rating (ducksalad; [7]): 70
Ducksalad plant response rating (ducksalad; [8]): 70
Plant response rating, Ducksalad (ducksalad; [9]): 90

CCc1nn(C(C)(C)C)cc1C(=O)Nc1cccc(C(C)=NO)c1 [Compound 188]
Plant response rating, Bermudagrass (bermudagrass; [3]): 75
Plant response rating, Bermudagrass (bermudagrass; [10]): 100
Plant response rating, Bermudagrass (bermudagrass; [11]): 100
Bermudagrass plant response rating (bermudagrass; [12]): 100
Plant response rating, Corn (corn; [6]): 0
Plant response rating, Corn (corn; [10]): 0
Plant response rating, Corn (corn; [11]): 0
Corn plant response rating (corn; [12]): 5
Plant response rating, Crabgrass, Large (large crabgrass; [6]): 95
Plant response rating, Crabgrass, Large (large crabgrass; [10]): 95
Plant response rating, Crabgrass, Large (large crabgrass; [11]): 95
Crabgrass, Large plant response rating (large crabgrass; [12]): 100
Plant response rating, Foxtail, Giant (giant foxtail; [6]): 0
Plant response rating, Foxtail, Giant (giant foxtail; [10]): 55
Plant response rating, Foxtail, Giant (giant foxtail; [11]): 70
Foxtail, Giant plant response rating (giant foxtail; [12]): 100
Plant response rating, Kochia (kochia; [6]): 0
Plant response rating, Kochia (kochia; [10]): 0
Kochia plant response rating (kochia; [12]): 95
Plant response rating, Morningglory (morningglory; [6]): 0
Morningglory plant response rating (morningglory; [12]): 75
Plant response rating, Ragweed (common ragweed; [6]): 0
Plant response rating, Ragweed (common ragweed; [10]): 65
Ragweed plant response rating (common ragweed; [12]): 100
Plant response rating, Sunflower [1, 6]: 0
Plant response rating, Sunflower [1, 10]: 0
Sunflower plant response rating [1, 12]: 0
Rice plant response rating (rice; [13]): 35
Rice plant response rating (rice; [7]): 45
Rice plant response rating (rice; [8]): 65
Plant response rating, Rice (rice; [9]): 75
Sedge, Umbrella plant response rating [2, 13]: 30
Sedge, Umbrella plant response rating [2, 7]: 75
Sedge, Umbrella plant response rating [2, 8]: 80
Plant response rating, Sedge, Umbrella [2, 9]: 85
Ducksalad plant response rating (ducksalad; [13]): 20
Ducksalad plant response rating (ducksalad; [7]): 65
Ducksalad plant response rating (ducksalad; [8]): 75
Plant response rating, Ducksalad (ducksalad; [9]): 85
